Laboratory results: publication PMC9150106, “Phenyl Bis-Sulfonamide Keap1-Nrf2 Protein–Protein Interaction Inhibitors with an Alternative Binding Mode” (Journal of Medicinal Chemistry, 2022)
Converted amounts (≈) assume the structure as drawn. Structures can show the parent of a compound that is named as a salt.

What was measured:
[1] = test system: NQO1 enzymatic activity (Nrf2 transcriptional activity); experiment: NQO1 enzyme activity assay in Hepa1c1c7 cells; type: cell-based, mouse; settings: Hepa1c1c7, 24 h
[2] = test system: Hepa1c1c7 mouse hepatoma cells; experiment: Cytotoxicity seen in the NQO1 assay; type: cell-based
physchem = settings: pH 7.4
[3] = biological target: Keap1 Kelch domain protein (Homo sapiens, UniProt Q14145); settings: 10 μM compound, 5 μM Keap1; Ti Keap1 + vehicle 61.3 °C
Keap1 Kelch domain protein, sequence (Q14145 321-609 limits assumed): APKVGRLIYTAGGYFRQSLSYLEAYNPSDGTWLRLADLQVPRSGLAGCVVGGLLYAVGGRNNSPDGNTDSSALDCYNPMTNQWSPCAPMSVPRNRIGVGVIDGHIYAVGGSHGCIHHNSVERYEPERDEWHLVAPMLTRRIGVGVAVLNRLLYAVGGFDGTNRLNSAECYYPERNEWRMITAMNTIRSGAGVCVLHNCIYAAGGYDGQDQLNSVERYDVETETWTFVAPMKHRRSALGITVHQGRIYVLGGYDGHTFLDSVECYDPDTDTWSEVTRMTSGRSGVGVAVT

[4] = PAMPA, pH 7.4
in vitro = settings: human, Cytotoxicity IC50 concentration
[5] = test system: ARPE19 retinal pigment epithelial cells; settings: human

Row | Structure (SMILES) | solubility (physchem) [µg/mL] | further results
1 | COC(=O)[C@]12CCC(C)(C)C[C@H]1[C@H]1C(=O)C=C3[C@@]4(C)C=C(C#N)C(=O)C(C)(C)[C@@H]4CC[C@@]3(C)[C@]1(C)CC2 [CDDO-Me, bardoxolone methyl] |  | NQO1 induction, concentration-response [1]: Dose-dependent induction; Concentration above which cytotoxic in NQO1 assay [2]: higher than 1 μM
2 | COc1ccc(S(=O)(=O)N(CC(=O)O)c2ccc(N(CC(=O)O)S(=O)(=O)c3ccc(OC)cc3)c(OC)c2)cc1 [Compound 10, 2,2′-((2-Methoxy-1,4-phenylene)bis(((4-methoxyphenyl)sulfonyl)azanediyl))diacetic Acid] | 271 (≈ 456 µM) | 
3 | COc1ccc(S(=O)(=O)N(CC(=O)O)c2ccc(N(CC(=O)O)S(=O)(=O)c3ccc(OC)cc3)c(OCc3ccccc3)c2)cc1 [Compound 11, 2,2′-((2-(Benzyloxy)-1,4-phenylene)bis(((4-methoxyphenyl)sulfonyl)azanediyl))diacetic Acid] | 348 (≈ 519 µM) | 
4 | CCOc1cc(N(CC(=O)O)S(=O)(=O)c2ccc(OC)cc2)ccc1N(CC(=O)O)S(=O)(=O)c1ccc(OC)cc1 [Compound 31, 2,2′-((2-Ethoxy-1,4-phenylene)bis(((4-methoxyphenyl)sulfonyl)azanediyl))diacetic Acid] | 337 (≈ 554 µM) | 
5 | CCCCOc1cc(N(CC(=O)O)S(=O)(=O)c2ccc(OC)cc2)ccc1N(CC(=O)O)S(=O)(=O)c1ccc(OC)cc1 [Compound 32, 2,2′-((2-Butoxy-1,4-phenylene)bis(((4-methoxyphenyl)sulfonyl)azanediyl))diacetic Acid] | 362 (≈ 569 µM) | 
6 | COc1ccc(S(=O)(=O)N(CC(=O)O)c2ccc(N(CC(=O)O)S(=O)(=O)c3ccc(OC)cc3)c(Oc3ccccc3)c2)cc1 [Compound 33, 2,2′-((2-Phenoxy-1,4-phenylene)bis(((4-methoxyphenyl)sulfonyl)azanediyl))diacetic Acid] | 363 (≈ 553 µM) | 
7 | COc1ccc(S(=O)(=O)N(CC(=O)O)c2ccc(N(CC(=O)O)S(=O)(=O)c3ccc(OC)cc3)c(-c3ccccc3)c2)cc1 [Compound 34, 2,2′-([1,1′-Biphenyl]-2,5-diylbis(((4-methoxyphenyl)sulfonyl)azanediyl))diacetic Acid] | 298 (≈ 465 µM) | DSF ΔTi [3]: 0.1–1.2 °C
8 | CCCOc1cc(N(CC(=O)O)S(=O)(=O)c2ccc(OC)cc2)ccc1N(CC(=O)O)S(=O)(=O)c1ccc(OC)cc1 [Compound 36, 2,2′-((2-Propoxy-1,4-phenylene)bis(((4-methoxyphenyl)sulfonyl)azanediyl))diacetic Acid] | 347 (≈ 557 µM) | 
9 | COc1ccc(S(=O)(=O)N(CC(=O)O)c2ccc(N(CC(=O)O)S(=O)(=O)c3ccc(OC)cc3)c(OC(C)C)c2)cc1 [Compound 37, 2,2′-((2-Isopropoxy-1,4-phenylene)bis(((4-methoxyphenyl)sulfonyl)azanediyl))diacetic Acid] | 288 (≈ 463 µM) | logPe (permeability coefficient) [4]: -4.74
10 | COc1ccc(S(=O)(=O)N(CC(=O)O)c2ccc(N(CC(=O)O)S(=O)(=O)c3ccc(OC)cc3)c(OCc3cccc(OC)c3)c2)cc1 [Compound 38, 2,2′-((2-((3-Methoxybenzyl)oxy)-1,4-phenylene)bis(((4-methoxyphenyl)sulfonyl)azanediyl))diacetic Acid] | 379 (≈ 541 µM) | 
11 | COc1ccc(S(=O)(=O)N(CC(=O)O)c2ccc(N(CC(=O)O)S(=O)(=O)c3ccc(OC)cc3)c(O)c2)cc1 [Compound 39, 2,2′-((2-Hydroxy-1,4-phenylene)bis(((4-methoxyphenyl)sulfonyl)azanediyl))diacetic Acid] | 343 (≈ 591 µM) | 
12 | COc1ccc(S(=O)(=O)N(CC(N)=O)c2ccc(N(CC(N)=O)S(=O)(=O)c3ccc(OC)cc3)c(OCc3ccccc3)c2)cc1 [Compound 40, 2,2′-((2-(Benzyloxy)-1,4-phenylene)bis(((4-methoxyphenyl)sulfonyl)azanediyl))diacetamide] | < 50 | 
13 | COc1ccc(S(=O)(=O)N(CC#N)c2ccc(N(CC#N)S(=O)(=O)c3ccc(OC)cc3)c(OCc3ccccc3)c2)cc1 [Compound 41, N,N′-[2-(Benzyloxy)-1,4-phenylene]bis[N-(cyanomethyl)-4-methoxybenzenesulfonamide]] | < 50 | logPe (permeability coefficient) [4]: -4.19
14 | COc1ccc(S(=O)(=O)N(Cc2nnn[nH]2)c2ccc(N(Cc3nnn[nH]3)S(=O)(=O)c3ccc(OC)cc3)c(OCc3ccccc3)c2)cc1 [Compound 42, N-((1H-Tetrazol-5-yl)methyl)-N-(4-((N-((1H-tetrazol-5-yl)methyl)-4-methoxyphenyl)sulfonamido)-2-(benzyloxy)phenyl)-4-methoxybenzenesulfonamide] | < 50 | 
15 | COc1ccc(S(=O)(=O)N(Cc2nnn[nH]2)c2ccc(N(CC(=O)O)S(=O)(=O)c3ccc(OC)cc3)c(OCc3ccccc3)c2)cc1 [Compound 51, N-(4-((N-((1H-Tetrazol-5-yl)methyl)-4-methoxyphenyl)sulfonamido)-2-(benzyloxy)phenyl)-N-((4-methoxyphenyl)sulfonyl)glycine] | 254 (≈ 366 µM) | 
16 | COc1ccc(S(=O)(=O)N(CC(=O)O)c2ccc(N(Cc3nnn[nH]3)S(=O)(=O)c3ccc(OC)cc3)c(OCc3ccccc3)c2)cc1 [Compound 52, N-(4-((N-((1H-Tetrazol-5-yl)methyl)-4-methoxyphenyl)sulfonamido)-3-(benzyloxy)phenyl)-N-((4-methoxyphenyl)sulfonyl)glycine] | 256 (≈ 368 µM) | 
17 | COC(=O)/C=C/C(=O)OC [DMF, dimethyl fumarate] |  | NQO1 induction, concentration-response [1]: Dose-dependent induction
18 | C[S+]([O-])CCCCN=C=S (centres unmarked) [Sulforaphane, sulforaphane] |  | IC50 (in vitro): 9.89 ± 2.91 µM; IC50 [5]: ~10 µM
